Results as given in the supplement of paper PMC11208160.

Assay: recombinant UMI read abundance after kanamycin selection (control-corrected) (log10(CPM+1)); higher = more efficient recombination; extreme values may be limits of the assay; sequences stand for … in AGTGCAGAGAAAATCGGCCAGTTTTCTCTGCCTGCAGTCCGCATGCCGTGGGACCCCTTGGGTTCTAACCTGTTGCCTAGATTTATGCAGCGGACTGCCTTTCTCCCAAAGTGATAAACCGG…AGGTTGGTTTCACT; site = the 11-nt donor
How it was run: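 For the IS621 bridge recombinase, a pooled Escherichia coli screen tested donor and donor-binding-loop pairs. Cells received the pair library together with a target plasmid encoding a fixed target and T7-inducible recombinase, then went onto IPTG (0.07 mM) plus kanamycin or unselected plates in duplicate. After PCR across the donor–target junction and sequencing, recombinant UMI counts were normalized to CPM, averaged, and scaled by control-derived factors. Each value is given as log10(CPM+1).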
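Further: IS621 bridge recombinase in Escherichia coli cells against a fixed T5 target plasmid.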

Sequence | recombinant UMI read abundance (log10)
CTTCTCTCATGGACCGGTTTTCCCGGTAATCCGTATTTGTT (site CTTCTCTCTCA) | 0.0142
CTTCTCTCATGGACCGGTTTTCCCGGTAATCCGTATTTGTT (site CTTCTCTCTGA) | 0
CTTCTCTCATGGACCGGTTTTCCCGGTAATCCGTATTTGTT (site CTTCTCTCTTA) | 0.757
CTTCTGTCATGGACCGGTTTTCCCGGTAATCCGTATTTGTA (site CTTCTATCTTA) | 2.41
CTTCTGTCATGGACCGGTTTTCCCGGTAATCCGTATTTGTA (site CTTCTCTCTTA) | 0.00482
CTTCTGTCATGGACCGGTTTTCCCGGTAATCCGTATTTGTA (site CTTCTGTCTTA) | 2.01
CTTCTGTCATGGACCGGTTTTCCCGGTAATCCGTATTTGTA (site CTTCTTTCTTA) | 0
CTTCTTTCATGGACCGGTTTTCCCGGTAATCCGTATTTGAC (site CTTCTTTCTGT) | 0
CTTCTTTCATGGACCGGTTTTCCCGGTAATCCGTATTTGTA (site CTTCTATCTTA) | 0.00989
CTTCTTTCATGGACCGGTTTTCCCGGTAATCCGTATTTGTA (site CTTCTCTCTTA) | 0
CTTCTTTCATGGACCGGTTTTCCCGGTAATCCGTATTTGTA (site CTTCTGTCTTA) | 0.00353
CTTCTTTCATGGACCGGTTTTCCCGGTAATCCGTATTTGTA (site CTTCTTTCTTA) | 0
CTTGGACCATGGACCGGTTTTCCCGGTAATCCGTATTTGTT (site CTTGGACCTAA) | 0.00553
CTTGGATCATGGACCGGTTTTCCCGGTAATCCGTATTTGAC (site CTAGTATCTGT) | 0
CTTGGATCATGGACCGGTTTTCCCGGTAATCCGTATTTGAC (site CTTGGATCTGT) | 0
CTTGGATCATGGACCGGTTTTCCCGGTAATCCGTATTTGCA (site CTTGGATCTTG) | 2.59

Sequence | recombinant UMI read abundance (log10)
CTTGGCCCATGGACCGGTTTTCCCGGTAATCCGTATTTGTA (site CTTGGCCCTTA) | 0.0132
CTTGTATCATGGACCGGTTTTCCCGGTAATCCGTATTTGAT (site CTAGTATCTGT) | 0
CTTGTATCATGGACCGGTTTTCCCGGTAATCCGTATTTGAT (site CTTGTATCTAT) | 1.29
CTTGTCTCATGGACCGGTTTTCCCGGTAATCCGTATTTGAA (site CTTGTCTCTTT) | 1.85
CTTGTGGCATGGACCGGTTTTCCCGGTAATCCGTATTTGGA (site CTTGTGGCTTC) | 0.306
CTTGTGTCATGGACCGGTTTTCCCGGTAATCCGTATTTGAC (site CTAGTATCTGT) | 0
CTTGTGTCATGGACCGGTTTTCCCGGTAATCCGTATTTGAC (site CTTGTGTCTGT) | 0.301
CTTTAAACATGGACCGGTTTTCCCGGTAATCCGTATTTGTA (site CTTTAAACTTA) | 1.06
CTTTACACATGGACCGGTTTTCCCGGTAATCCGTATTTGCT (site CTATACACTAG) | 2.27
CTTTACACATGGACCGGTTTTCCCGGTAATCCGTATTTGCT (site CTCTACACTAG) | 1.2
CTTTACACATGGACCGGTTTTCCCGGTAATCCGTATTTGCT (site CTGTACACTAG) | 1.59
CTTTACACATGGACCGGTTTTCCCGGTAATCCGTATTTGCT (site CTTTACACTAG) | 1.81
CTTTACACATGGACCGGTTTTCCCGGTAATCCGTATTTGGG (site CTTTACACTCC) | 0.147
CTTTACGCATGGACCGGTTTTCCCGGTAATCCGTATTTGTT (site CTTTACGCTAA) | 0.6
CTTTCGGCATGGACCGGTTTTCCCGGTAATCCGTATTTGTG (site CTTTCGGCTCA) | 0.003
GAAAACGCATGGACCGGTTTTCCCGGTAATCCGTATTTGGA (site GAAAACGCTTC) | 1.02
